{"source": "paper PMC8424097", "about": "“Population Pharmacokinetics of Polymyxin B and Dosage Optimization in Renal Transplant Patients” (Frontiers in Pharmacology, 2021)", "key": {"[1]": {"assay": "Adverse effects (nephrotoxicity, neurotoxicity, skin) during polymyxin B treatment of renal transplant patients", "assay_type": "in vivo, human", "description": "(§1) The following data were collected: age; sex; weight; maintenance doses; time and route of administration; site of infection; microbes; comorbidities; liver function indexes, such as alanine aminotransferase (ALT), aspartate aminotransferase (AST), total bilirubin (TBIL), direct bilirubin (DBIL), and albumin (ALB); and renal function indexes, such as uric acid (UA), blood urea nitrogen (BUN), and CrCL. CrCL was calculated according to the Cockcroft-Gault equation ([Janmahasatian et al., 2005]). CrCL ≤80 ml/min was defined as renal dysfunction, and when the basic CrCL decreased by more than 25%, nephrotoxicity was defined. Risk, injury, failure, loss and end-stage renal disease criteria were used to define acute kidney injury (AKI) in patients ([Bellomo et al., 2004]). Neurotoxicity was defined when any neurological symptoms or signs occurred during polymyxin B treatment, including dizziness, vertigo, visual disturbances, confusion, hallucinations, ataxia, seizures, and facial and peripheral paresthesia. The observed AUC0–24h of patients was calculated by daily dose/CL."}, "[2]": {"settings": "cited from earlier work", "description": "According to the results from previous pharmacokinetics and pharmacodynamics (PK/PD) studies, the bactericidal activity of polymyxin B is best correlated with the area under the concentration-time curve over 24 h in steady state divided by the minimum inhibitory concentration (AUC0–24h/MIC) ([Mohamed et al., 2012]). Moreover, the latest guidelines recommended a target plasma AUC0–24h of 50–100 mg⋅h/L to achieve bactericidal activity against an isolate with an MIC of 2 mg/L (the EUCAST and CLSI breakpoints) ([Tsuji et al., 2019]). However, due to the lack of rigorous PK data, the optimal dosing ... || Monte Carlo simulations (n = 1,000) were conducted using metrics to determine the PTA for fAUC0–24h/MIC ≥20 at various MICs (0.5–2 mg/L) in patients with different renal functions (CrCL: 10–80 ml/min), where f is the unbound fraction of polymyxin B (assumed to be 0.42) ([Sandri et al., 2013b]). The dosages were selected according to the most commonly used regimens in renal transplant patients. The regimens were as follows with a 2 h infusion: a single 50 mg loading dose followed by either 30 mg every 12 h or 40 mg every 12 h, either a loading dose of 75 mg or 100 mg followed by 50 mg every 12 ... || In the present study, a one-compartment model was used to describe the original data, which was consistent with some of the previous studies ([Kubin et al., 2018]; [Manchandani et al., 2018]). […] This difference might be mainly due to impaired renal function in the renal transplant patients in this study (CrCL: 20.89 ml/min, range: 4.29–78.84 ml/min) because we identified CrCL as a significant predic ... || (+ 1 further places)"}, "[3]": {"settings": "cited from earlier work", "from_the_text": "It is well known that nephrotoxicity is the major adverse effect of polymyxin B, with a wide range from 26.9 to 60% ([Plachouras et al., 2009]; [Akajagbor et al., 2013]; [Dubrovskaya et al., 2015]; [Rigatto et al., 2015]). In the present study, however, the incidence of AKI was extremely low, with only five patients showing nephrotoxicity. As polymyxin B-induced nephrotoxicity is a dose-limiting adverse effect, our result seemed to be consistent with the previous finding that patients with renal impairment might have a lower incidence of AKI due to the decreased percentage of tubular reabsorpt ... || The incidence of neurotoxicity was much higher than noted before (62.0 vs 7%) and has become the dose-limiting factor in our study ([Arnold et al., 2007]). […] Considering their similar structures, this mechanism might also fit polymyxin B; therefore, the higher exposure of p ...", "remark": "listed apart in the source"}, "[4]": {"settings": "rats, 6 h after dosing; ref Manchandani et al., 2015; cited from earlier work", "description": "Polymyxin B is mainly distributed in the kidney, and the renal tissue/serum concentration ratio of polymyxin B was 19.62 at 6 h after dosing in rats ([Manchandani et al., 2015]). Therefore, the variation in polymyxin B accumulation in the kidney might be responsible for the differences in the apparent volume of distribution. In addition t ..."}, "[5]": {"assay": "Population pharmacokinetic analysis of polymyxin B in renal transplant patients (plasma, HPLC-MS/MS, Phoenix NLME)", "assay_type": "in vivo, human", "description": "This prospective study was approved by the Ethics Committee of the Second Xiangya Hospital, Central South University. Informed consent was obtained from all patients or legal representatives of the patients (No. ChiCTR1900022231). Renal transplant patients (aged ≥18 years) who received intravenous polymyxin B (sulfate; Polymyxin B for Injection, China, SPH NO.1 BIOCHEMICAL and PHARMACEUTICAL CO. LTA) for ≥48 h were enrolled. Patients were excluded if they were pregnant, allergic or intolerant to polymyxin B and lacked the necessary data (weight or some renal function index).\nAll patients accepted at least 3 days of polymyxin B infusion, and the administration interval of polymyxin B was 12 h with an infusion duration of 60–120 min. One to six blood samples (2 mL) were randomly collected 30 min before the sixth dose of polymyxin B and at 0, 0.5, 1, 2, 4, 6, and 8 h after the end of infusion. Blood samples were centrifuged for 10 min (3,400 rpm/min), and the supernatant was immediately stored at −80°C until analysis. A validated high-performance liquid chromatography-tandem mass spectrometry (HPLC-MS/MS) was used to measure the concentrations of polymyxin B1 and polymyxin B2 ([Thomas et al., 2012]). Briefly, a Shim-pack GIST C18 (2.1*100 mm, 3 μm, Shimadzu) column was used. Gradient chromatography was performed with solvent A (0.1% formic acid in water) and solvent B (acetonitrile). The following gradient elution was performed at a total flow of 0.6 ml/min for analyte elution: 10–60% B from 0 to 5 min, 60%–90% B from five to 5.10 min, 90% from 5.10 to 6 min, 90%–10% B from six to 6.10 min, and 10% B from 6.10 to 10.0 min. The elution time was 10 min, and the injection volume was 2 μL. The interday precision was <12%, the intraday precision was <9%, and the accuracy ranged from 96.1 to 110.4%. The limit of quantification was 0.03 mg/L.\nas §1\nThe concentration-time data of polymyxin B were analyzed with a nonlinear mixed effect modeling approach with the Phoenix NLME program (version 8.1. Pharsight, A Certara Company, United States of America). The first-order conditional estimation-extended least square method (FOCE-ELS) was used to develop the PPK model. One- and two-compartment models with linear elimination were evaluated for structure model selection based on the objective function value (OFV) and Akaike information criterion (AIC). The interindividual variability of PK parameters was described by an exponential error model. Residual variability was selected with an additive error model, proportional error model and combined error model. The covariates considered for the modeling included age, weight, ALT, AST, TBIL, DBIL, ALB, BUN, UA, and CrCL. The median of the covariate was used to normalize the covariate, and a stepwise method was used to screen the covariates. […]"}, "[6]": {"settings": "of 50 renal transplant patients"}, "[7]": {"settings": "patients of previous studies, ref Kubin et al., 2018, Manchandani et al."}}, "note": "Positions of bridges follow the written chain, without caps; N, C: chain ends. Non-standard residues stand in square brackets, D forms with d. Residues, ends and D or L forms follow the SMILES beside them. *: point of attachment. X1 = CC[C@H](C)CCCCC(=O)*; Dab = NCC[C@H](N)C(=O)O", "data": [{"smiles": "CC[C@H](C)CCCCC(=O)N[C@@H](CCN)C(=O)N[C@H](C(=O)N[C@@H](CCN)C(=O)N[C@H]1CCNC(=O)[C@H]([C@@H](C)O)NC(=O)[C@H](CCN)NC(=O)[C@H](CCN)NC(=O)[C@H](CC(C)C)NC(=O)[C@@H](Cc2ccccc2)NC(=O)[C@H](CCN)NC1=O)[C@@H](C)O", "note": "[polymyxin B] (X1-[Dab]T[Dab][Dab][Dab][dF]L[Dab][Dab]T; lactam 4-C)", "values": [{"measurement": "incidence of dermatitis", "setting": "[1]; 50 renal transplant patients", "result": 34.0, "unit": "%"}, {"measurement": "incidence of neurotoxicity", "setting": "[1]; 50 renal transplant patients", "result": 62.0, "unit": "%"}, {"measurement": "nephrotoxicity classified as injury (RIFLE)", "setting": "[1]; [6]", "result": "one"}, {"measurement": "nephrotoxicity classified as risk (RIFLE)", "setting": "[1]; [6]", "result": "four"}, {"measurement": "patients with dermatitis", "setting": "[1]; [6]", "result": "Seventeen"}, {"measurement": "patients with dizziness", "setting": "[1]; [6]", "result": "three"}, {"measurement": "patients with facial and peripheral paresthesia", "setting": "[1]; [6]", "result": 29, "unit": "patients"}, {"measurement": "patients with nephrotoxicity (basic CrCL decreased by more than 25%)", "setting": "[1]; [6]", "result": "five"}, {"measurement": "patients with neurotoxicity of different degrees", "setting": "[1]; [6]", "result": 31, "unit": "patients"}, {"measurement": "patients with seizures", "setting": "[1]; [6]", "result": "three"}, {"measurement": "patients with pigmentation", "setting": "[1]; of 50 renal transplant patients, all disappeared 1 month after withdrawal", "result": "Seven"}, {"measurement": "days printed for the nephrotoxicity case classified as injury", "setting": "[1]; renal transplant patients", "result": 11, "unit": "days"}, {"measurement": "days printed for the nephrotoxicity cases (all five)", "setting": "[1]; renal transplant patients", "result": "3 to 11", "unit": "days"}, {"measurement": "days printed for the nephrotoxicity cases classified as risk", "setting": "[1]; renal transplant patients", "result": "3 to 7", "unit": "days"}, {"measurement": "CL reported in previous one-compartment models", "setting": "[2]; [7]", "result": "2.37 to 2.5", "unit": "L/h"}, {"measurement": "V reported by previous studies", "setting": "[2]; [7]", "result": "34.3 to 34.4", "unit": "L"}, {"measurement": "urinary recovery (range between patients)", "setting": "[2]; previous study in patients, ref Sandri et al., 2013b", "result": "0.98–17.4%"}, {"measurement": "patients achieving the AUC0–24h target at the recommended dosage", "setting": "[2]; ref Lakota et al., 2018", "result": 71, "unit": "%"}, {"measurement": "unbound fraction f (assumed)", "setting": "[2]; used for fAUC0–24h/MIC in the simulations, ref Sandri et al., 2013b", "result": 0.42}, {"measurement": "incidence of neurotoxicity noted before", "setting": "[3]; ref Arnold et al., 2007", "result": 7, "unit": "%"}, {"measurement": "incidence of nephrotoxicity (range of previous reports)", "setting": "[3]; ref Plachouras et al., 2009, Akajagbor et al., 2013, Dubrovskaya et al., 2015, Rigatto et al., 2015", "result": "26.9 to 60", "unit": "%"}, {"measurement": "renal tissue/serum concentration ratio", "setting": "[4]", "result": 19.62}, {"measurement": "CL, bootstrap median", "setting": "[5]; bootstrap, 1000 resamples", "result": 1.17, "unit": "L/h"}, {"measurement": "V, bootstrap median", "setting": "[5]; bootstrap, 1000 resamples", "result": 11.98, "unit": "L"}, {"measurement": "Θ CrCL, bootstrap median", "setting": "[5]; bootstrap, 1000 resamples", "result": 0.14}, {"measurement": "mean AUC0–24h (observed)", "setting": "[5]; calculated by daily dose/CL, mean ± SD, SD", "result": "74.60 ± 17.81", "unit": "µg·h/mL"}, {"measurement": "Θ CrCL (exponent for CrCL as a covariate for CL), final model estimate", "setting": "[5]; final PPK model", "result": 0.14}, {"measurement": "Vd", "setting": "[5]; human, intravenous q 12 h, one-compartment PPK model, 151 plasma samples from 50 patients, HPLC-MS/MS, read-out: V, final model estimate", "result": 12.1, "unit": "L"}, {"measurement": "clearance", "setting": "[5]; human, intravenous q 12 h, one-compartment PPK model, typical value at CrCL 22.2 ml/min, 151 plasma samples from 50 patients, read-out: CL, final model estimate (converted)", "result": 19.7, "unit": "mL/min"}]}]}
